Test results published in PubChem BioAssay AID330 (DTP/NCI, 2004).
Several values for one entry are separate records, joined by “and”; a condition that tells them apart may be missing. Equal entries are not always repeated. Toxic doses and inconclusive results are not listed. How the source made its calls: active means survival T/C of 150% or more; inactive means T/C below 125% in these data.

System: P388 leukemia ip, CD2F1 mice, survival T/C
Test: NCI In Vivo Anticancer Drug Screen. Data for tumor model P388 Leukemia (intraperitoneal) in CD2F1 (CDF1) mice
Settings: endpoint: median survival time, higher = longer survival
Summary of the method: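 Mice carrying the transplanted tumor received test compound or vehicle. Survival was recorded in each group, and the value is the treated-group measurement divided by that of the vehicle-treated control group.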

[1] = dose: 12.5 mg/kg/injection, schedule: Q01DX009 (ip), vehicle: saline with Tween-80
[2] = dose: 25.0 mg/kg/injection, schedule: Q01DX009 (ip), vehicle: saline with Tween-80
[3] = dose: 50.0 mg/kg/injection, schedule: Q01DX009 (ip), vehicle: saline with Tween-80
[4] = dose: 12.5 mg/kg/injection, schedule: Q01DX005 (ip), vehicle: Klucel (hydroxypropylcellulose) (HPC)
[5] = dose: 100.0 mg/kg/injection, schedule: Q01DX009 (ip), vehicle: saline with Tween-80
[6] = dose: 200.0 mg/kg/injection, schedule: Q01DX009 (ip), vehicle: saline with Tween-80
[7] = dose: 60.0 mg/kg/injection, schedule: Q01DX005 (ip), vehicle: saline with Tween-80
[8] = dose: 120.0 mg/kg/injection, schedule: Q01DX005 (ip), vehicle: saline with Tween-80
[9] = dose: 50.0 mg/kg/injection, schedule: Q01DX005 (ip), vehicle: Klucel (hydroxypropylcellulose) (HPC)
[10] = dose: 100.0 mg/kg/injection, schedule: Q01DX005 (ip), vehicle: Klucel (hydroxypropylcellulose) (HPC)
[11] = dose: 200.0 mg/kg/injection, schedule: Q01DX005 (ip), vehicle: Klucel (hydroxypropylcellulose) (HPC)
[12] = dose: 50.0 mg/kg/injection, schedule: Q04DX002 (ip), vehicle: saline
[13] = dose: 100.0 mg/kg/injection, schedule: Q04DX002 (ip), vehicle: saline

Measured: T/C

Nc1nn(-c2ccc(Br)cc2)c2cccc[n+]12
inactive: [1] 105 % of control | dose: 25.0 mg/kg/injection, schedule: Q01DX009 (ip), vehicle: other 115 % of control | [2] 100 % of control | dose: 50.0 mg/kg/injection, schedule: Q01DX009 (ip), vehicle: other 97 % of control | [3] 100 % of control and 97 % of control

C(=N\Nc1c2c(nc3ccccc13)CCCC2)/c1ccc2c(c1)OCO2
inactive: dose: 3.12 mg/kg/injection, schedule: Q01DX005 (ip), vehicle: Klucel (hydroxypropylcellulose) (HPC) 109 % of control | dose: 6.25 mg/kg/injection, schedule: Q01DX005 (ip), vehicle: Klucel (hydroxypropylcellulose) (HPC) 95 % of control | [4] 90 % of control and 95 % of control

CC12C3=CC=C4C=CC=C(c5ccccc5C1=CC=C3)C42C (configuration not stated)
inactive: dose: 50.0 mg/kg/injection, schedule: Q04DX002 (ip), vehicle: Klucel (hydroxypropylcellulose) (HPC) 100 % of control | dose: 100.0 mg/kg/injection, schedule: Q04DX002 (ip), vehicle: Klucel (hydroxypropylcellulose) (HPC) 111 % of control | dose: 200.0 mg/kg/injection, schedule: Q04DX002 (ip), vehicle: Klucel (hydroxypropylcellulose) (HPC) 107 % of control

CN(C)c1ccc(/C=[N+](\[O-])C(C)(C)CO)cc1
inactive: dose: 6.25 mg/kg/injection, schedule: Q01DX009 (ip), vehicle: saline with Tween-80 100 % of control | [1] 102 % of control | [2] 100 % of control | [5] 96 % of control | [6] 97 % of control

NNc1nncc2c1[nH]c1ccccc12
inactive: dose: 1.56 mg/kg/injection, schedule: Q01DX001 (ip), vehicle: saline with Tween-80 102 % of control | dose: 3.12 mg/kg/injection, schedule: Q01DX001 (ip), vehicle: saline with Tween-80 102 % of control | dose: 6.25 mg/kg/injection, schedule: Q01DX001 (ip), vehicle: saline with Tween-80 105 % of control | dose: 12.5 mg/kg/injection, schedule: Q01DX001 (ip), vehicle: saline with Tween-80 103 % of control

CCN=NNc1ccc([N+](=O)[O-])cc1
inactive: dose: 12.5 mg/kg/injection, schedule: Q01DX009 (ip), vehicle: distilled water + Tween-80 95 % of control | dose: 25.0 mg/kg/injection, schedule: Q01DX009 (ip), vehicle: distilled water + Tween-80 100 % of control | dose: 50.0 mg/kg/injection, schedule: Q01DX009 (ip), vehicle: distilled water + Tween-80 105 % of control | dose: 100.0 mg/kg/injection, schedule: Q01DX009 (ip), vehicle: distilled water + Tween-80 100 % of control | dose: 200.0 mg/kg/injection, schedule: Q01DX009 (ip), vehicle: distilled water + Tween-80 112 % of control

CCCCC[N+]1(CC)CCCCC1
inactive: dose: 3.12 mg/kg/injection, schedule: Q01DX009 (ip), vehicle: saline 104 % of control | dose: 6.25 mg/kg/injection, schedule: Q01DX009 (ip), vehicle: saline 106 % of control | dose: 12.5 mg/kg/injection, schedule: Q01DX009 (ip), vehicle: saline 104 % of control

Cc1c2oc3c(C)ccc(C(=O)NC(C(=O)NC(C(=O)O)C(C)C)C(C)O)c3nc-2c(C(=O)NC(C(=O)NC(C(=O)O)C(C)C)C(C)O)c(N)c1=O (configuration not stated)
inactive: dose: 0.05 mg/kg/injection, schedule: Q01DX009 (ip), vehicle: water 100 % of control | dose: 0.1 mg/kg/injection, schedule: Q01DX009 (ip), vehicle: water 97 % of control | dose: 0.2 mg/kg/injection, schedule: Q01DX009 (ip), vehicle: water 94 % of control | dose: 0.4 mg/kg/injection, schedule: Q01DX009 (ip), vehicle: water 99 % of control | dose: 0.8 mg/kg/injection, schedule: Q01DX009 (ip), vehicle: water 97 % of control | dose: 1.6 mg/kg/injection, schedule: Q01DX009 (ip), vehicle: water 102 % of control

CC(=O)OC1CC2CCC3C(CCC4(C)C3CC([N+]3(C)CCCCC3)C4OC(C)=O)C2(C)CC1[N+]1(C)CCCCC1 (configuration not stated)
inactive: dose: 12.5 micrograms/kg/injection, schedule: Q01DX009 (ip), vehicle: saline 103 % of control | dose: 25.0 micrograms/kg/injection, schedule: Q01DX009 (ip), vehicle: saline 100 % of control | dose: 50.0 micrograms/kg/injection, schedule: Q01DX009 (ip), vehicle: saline 103 % of control

CCCCCCCCCCCCCCCC(=O)NCCCCC(N)C(=O)O (configuration not stated)
inactive: dose: 50.0 mg/kg/injection, schedule: Q01DX009 (ip), vehicle: suspension in saline 94 % of control | dose: 100.0 mg/kg/injection, schedule: Q01DX009 (ip), vehicle: suspension in saline 98 % of control | dose: 200.0 mg/kg/injection, schedule: Q01DX009 (ip), vehicle: suspension in saline 96 % of control

Cc1ccc(S(=O)(=O)F)cc1C(=O)O
inactive: [7] 101 % of control | [8] 93 % of control

COc1nc(NC2OC(COC(C)=O)C(OC(C)=O)C(OC(C)=O)C2OC(C)=O)c(N=C(C)C(C)=O)c(=O)n1C (configuration not stated)
inactive: [7] 99 % of control | [8] 95 % of control | dose: 240.0 mg/kg/injection, schedule: Q01DX005 (ip), vehicle: saline with Tween-80 95 % of control

CCCCN(CCCC)CCNc1ccc(C)c2sc3c(Cl)cccc3c(=O)c12
inactive: [9] 99 % of control | [10] 108 % of control | [11] 105 % of control

CC1CC(C)(C)N=C(CCC2CCCC2=O)O1 (configuration not stated)
inactive: [5] 91 % of control | dose: 100.0 mg/kg/injection, schedule: Q04DX003 (ip), vehicle: saline with Tween-80 95 % of control | [6] 100 % of control | dose: 200.0 mg/kg/injection, schedule: Q04DX003 (ip), vehicle: saline with Tween-80 100 % of control | dose: 400.0 mg/kg/injection, schedule: Q01DX009 (ip), vehicle: saline with Tween-80 104 % of control | dose: 400.0 mg/kg/injection, schedule: Q04DX003 (ip), vehicle: saline with Tween-80 104 % of control

O=C(CBr)c1cc2ccccc2[nH]1
inactive: dose: 100.0 mg/kg/injection, schedule: Q01DX001 (ip), vehicle: saline 110 % of control | dose: 200.0 mg/kg/injection, schedule: Q01DX001 (ip), vehicle: saline 106 % of control | dose: 400.0 mg/kg/injection, schedule: Q01DX001 (ip), vehicle: saline 106 % of control

O=C1OC(c2ccccc2)(c2ccccc2)c2cc3c(cc21)C(=O)OC3(c1ccccc1)c1ccccc1
inactive: [12] 102 % of control | [13] 100 % of control | dose: 200.0 mg/kg/injection, schedule: Q04DX002 (ip), vehicle: saline 98 % of control

CCCCCCCCCCCCCC[N+]1([O-])CCOCC1
inactive: dose: 25.0 mg/kg/injection, schedule: Q04DX002 (ip), vehicle: saline 104 % of control | [12] 104 % of control | [13] 104 % of control and 94 % of control

O=C1OC(=O)C2=C1C1c3ccccc3C2c2ccccc21
inactive: [4] 100 % of control | dose: 25.0 mg/kg/injection, schedule: Q01DX005 (ip), vehicle: Klucel (hydroxypropylcellulose) (HPC) 109 % of control | [9] 108 % of control and 110 % of control | [10] 106 % of control

CC(C)=NN(C)/C=N/S(=O)(=O)c1ccccc1
inactive: [9] 100 % of control | [10] 97 % of control | [11] 98 % of control

CCC1(C)C(=O)SC(=S)N1C (configuration not stated)
inactive: [9] 101 % of control | [10] 97 % of control | [11] 103 % of control

O=C(COc1ccc(Cl)cc1Cl)Nc1ccc(S(=O)(=O)O)cc1
inactive: dose: 60.0 mg/kg/injection, schedule: Q01DX005 (ip), vehicle: Klucel (hydroxypropylcellulose) (HPC) 104 % of control | dose: 120.0 mg/kg/injection, schedule: Q01DX005 (ip), vehicle: Klucel (hydroxypropylcellulose) (HPC) 104 % of control | dose: 240.0 mg/kg/injection, schedule: Q01DX005 (ip), vehicle: Klucel (hydroxypropylcellulose) (HPC) 98 % of control

c1ccc2c(c1)CC1ON3CCc4ccccc4C3C21 (configuration not stated)
inactive: [3] 97 % of control | [5] 94 % of control | [6] 92 % of control

CC(C)(C)c1ccc(OCC(COc2ccc(C(C)(C)C)cc2)(COc2ccc(C(C)(C)C)cc2)COc2ccc(C(C)(C)C)cc2)cc1
inactive: dose: 7.5 mg/kg/injection, schedule: Q01DX009 (ip), vehicle: saline with Tween-80 98 % of control | dose: 15.0 mg/kg/injection, schedule: Q01DX009 (ip), vehicle: saline with Tween-80 95 % of control | dose: 30.0 mg/kg/injection, schedule: Q01DX009 (ip), vehicle: saline with Tween-80 93 % of control
